Laboratory results reported in patent US11655994B2, “Antimicrobial composition including an acyl lactylate and a glycol and methods of inhibiting microbial growth utilizing the same” (Kimberly-Clark Worldwide, Inc., priority 2017, dated 2023).

Assay: Brookfield viscosity of acyl lactylates alone and 1:1 with glycols
Format: physicochemical
Details: Brookfield 95, 5 RPM, 25° C.; acyl lactylate alone
Text: An advantage of compositions including an acyl lactylate and a glycol is the reduction of viscosity that is present in acyl lactylates, which is rather high and increases difficulty in processing. […] Of course, it is expected that a lowering of viscosity of the acyl lactylates would be realized in ratios of acyl lactylates:glycols other than 1:1 as well.

| Molecule | Viscosity |
| --- | --- |
| CCCCCCCCCCCC(=O)OC(C)C(=O)OC(C)C(=O)[O-].[Na+] (stereo not drawn) [Sodium Lauroyl Lactylate] | 1,520,000 cP |
| Sodium Caproyl/Lauroyl Lactylate | 1,192,000 cP |
| Sodium Isostearoyl Lactylate | 1,080,000 cP |
